According to patent US11555032B2, “Isoxazole derivatives as FXR agonists and methods of use thereof” (Enanta Pharmaceuticals, Inc., priority 2019, dated 2023):
pEC50: −log10 of the molar value.

The compounds below were run against T1, human FXR (NR1H4) (Homo sapiens, UniProt Q96RI1) (assay: Human FXR (NRIH4) Assay, luciferase reporter). Conditions: CHO reporter cells expressing human NR1H4, luciferase, 22 hours incubation.
T1 construct: host or cells: CHO (Chinese hamster ovary) reporter cells
T1 sequence (Q96RI1 1-486): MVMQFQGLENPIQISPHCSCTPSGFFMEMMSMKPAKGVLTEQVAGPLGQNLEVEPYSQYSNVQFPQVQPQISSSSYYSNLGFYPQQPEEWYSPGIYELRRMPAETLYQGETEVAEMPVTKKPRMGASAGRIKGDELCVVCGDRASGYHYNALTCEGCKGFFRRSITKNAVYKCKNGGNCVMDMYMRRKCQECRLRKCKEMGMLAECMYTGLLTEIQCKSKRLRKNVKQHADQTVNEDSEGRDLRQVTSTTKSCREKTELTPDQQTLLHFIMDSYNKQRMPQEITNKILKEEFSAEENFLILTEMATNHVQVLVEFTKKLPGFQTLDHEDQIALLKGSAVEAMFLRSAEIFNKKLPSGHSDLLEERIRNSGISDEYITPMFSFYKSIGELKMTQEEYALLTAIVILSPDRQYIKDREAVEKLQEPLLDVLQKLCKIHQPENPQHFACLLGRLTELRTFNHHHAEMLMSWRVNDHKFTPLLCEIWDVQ
Format: cell-based
Excerpt: Determination of a ligand mediated Gal4 promoter driven transactivation to quantify ligand binding mediated activation of FXR. FXR Reporter Assay kit purchased from Indigo Bioscience (Catalogue number: IB00601) to determine the potency and efficacy of compound developed by Enanta that can induce FXR activation. The principle application of this reporter assay system is to quantify functional activity of human FXR. The assay utilizes non-human mammalian cells, CHO (Chinese hamster ovary) cells engineered to express human NR1H4 protein (referred to as FXR). Reporter cells also incorporate the cDNA encoding beetle luciferase which catalyzes the substrates and yields photon emission. Luminescence intensity of the reaction is quantified using a plate-reading luminometer, Envision. Reporter Cells include the luciferase reporter gene functionally linked to an FXR responsive promoter. Thus, quantifying changes in luciferase expression in the treated reporter cells provides a sensitive surrogate measure of the changes in FXR activity. EC50 and efficacy (normalize to CDCA set as 100%) is determined by XLFit. The assay is according to the manufacturer's instructions. In brief, the assay was performed in white, 96 well plates using final volume of 100 ul containing cells with different doses of compounds. Retrieve Reporter Cells from −80° C. storage. Perform a rapid thaw of the frozen cells by transferring a 10 ml volume of 37° C. cell recovery medium into the tube of frozen cells. Recap the tube of Reporter Cells and immediately place it in a 37° C. water bath for 5-10 minutes. Retrieve the tube of Reporter Cell Suspension from the water bath. Sanitize the outside surface of the tube with a 70% alcohol swab, and then transfer it into the cell culture hood. Dispense 90 μl of cell suspension into each well of the 96-well Assay Plate. Transfer the plate into 37° C. incubator, allowing the cells adherent to the bottom of the well. Dilute compounds in Dilution Plate (DP), and administrate to cells at Assay Plate (AP). DMSO content of the samples was kept at 0.2%. Cells were incubated for additional 22 hours before luciferase activities were measured. Thirty minutes before intending to quantify FXR activity, remove Detection Substrate and Detection Buffer from the refrigerator and place them in a low-light area so that they may equilibrate to room temperature. Remove the plate's lid and discard all media contents by ejecting it into an appropriate waste container. Gently tap the inverted plate onto a clean absorbent paper towel to remove residual droplets. Cells will remain tightly adhered to well bottoms. Add 100 μl of luciferase detection reagent to each well of the assay plate. Allow the assay plate to rest at room temperature for at least 5 minutes following the addition of LDR. Set the instrument (Envision) to perform a single 5 second “plate shake” prior to reading the first assay well. Read time may be 0.5 second (500 mSec) per well. EC50 and Efficacy (normalize to CDCA set as 100%) is determined by XLFit.
The efficacy was normalized to CDCA set as 100%.

SMILES	pEC50
CC(C)Oc1cc(C(=O)O)cc2sc(NC3[C@@H]4CC[C@H]3CC(OCc3c(-c5c(Cl)cccc5Cl)noc3C3CC3)C4)nc12 (stereo partly drawn) [Example 1, 2-(((1R,3r,5S,8s)-3-((5-cyclopropyl-3-(2,6-dichlorophenyl)isoxazol-4-yl)methoxy)bicyclo[3.2.1]octan-8-yl)amino)-4-isopropoxybenzo[d]thiazole-6-carboxylic acid]	> 7.60
CC(C)Oc1cc(C(=O)O)cc2sc(NC3C4CCC3CC(OCc3c(-c5c(Cl)cccc5Cl)noc3C3CC3)C4)nc12 [Example 2, 2-(((1R,3r,5S,8r)-3-((5-cyclopropyl-3-(2,6-dichlorophenyl)isoxazol-4-yl)methoxy)bicyclo[3.2.1]octan-8-yl)amino)-4-isopropoxybenzo[d]thiazole-6-carboxylic acid]	> 7.60
O=C(O)c1ccc2c(c1)CN(C1C3CCC1CC(OCc1c(-c4c(Cl)cccc4Cl)noc1C1CC1)C3)C2 (centres unmarked) [Example 2-2]	> 7.60
CC(C)Oc1cc(C(=O)O)cc2sc(NC3C4CCC3CC(OCc3c(-c5ccccc5OC(F)(F)F)noc3C3CC3)C4)nc12 [Example 3, 2-(((1R,3r,5S,8s)-3-((5-cyclopropyl-3-(2-(trifluoromethoxy)phenyl)isoxazol-4-yl)methoxy)bicyclo[3.2.1]octan-8-yl)amino)-4-isopropoxybenzo[d]thiazole-6-carboxylic acid]	> 7.60
O=C(O)c1cc(F)c2nc(NC3C4CCC3CC(OCc3c(-c5ccccc5OC(F)(F)F)noc3C3CC3)C4)sc2c1 (centres unmarked) [Example 3-2]	> 7.60
O=C(O)c1ccnc(NC2C3CCC2CC(OCc2c(-c4ccccc4OC(F)(F)F)noc2C2CC2)C3)c1 (centres unmarked) [Example 3-3]	6.30 to 7.60
O=C(O)c1cccc2nc(NC3C4CCC3CC(OCc3c(-c5ccccc5OC(F)(F)F)noc3C3CC3)C4)ccc12 (centres unmarked) [Example 3-4]	> 7.60
O=C(O)c1cnc(NC2C3CCC2CC(OCc2c(-c4ccccc4OC(F)(F)F)noc2C2CC2)C3)c(C(F)(F)F)c1 (centres unmarked) [Example 3-5]	6.30 to 7.60
O=C(O)c1ccc2nc(NC3C4CCC3CC(OCc3c(-c5ccccc5OC(F)(F)F)noc3C3CC3)C4)ccc2c1 (centres unmarked) [Example 3-6]	> 7.60
O=C(O)c1cccc2nc(NC3C4CCC3CC(OCc3c(-c5ccccc5OC(F)(F)F)noc3C3CC3)C4)cnc12 (centres unmarked) [Example 3-7]	> 7.60
O=C(O)c1cc2sc(NC3C4CCC3CC(OCc3c(-c5ccccc5OC(F)(F)F)noc3C3CC3)C4)nc2c(F)c1F (centres unmarked) [Example 3-9]	> 7.60
O=C(O)c1ccc2nc(NC3C4CCC3CC(OCc3c(-c5ccccc5OC(F)(F)F)noc3C3CC3)C4)ncc2c1 (centres unmarked) [Example 3-12]	> 7.60
O=C(O)c1cccc2nc(NC3C4CCC3CC(OCc3c(-c5ccccc5OC(F)(F)F)noc3C3CC3)C4)ncc12 (centres unmarked) [Example 3-13]	> 7.60
CC(C)Oc1cc(C(=O)O)cc2sc(N[C@H]3C[C@@H]4C[C@H]3C[C@@H]4OCc3c(-c4c(Cl)cccc4Cl)noc3C3CC3)nc12 [Example 4, 2-(((1S,2S,4S,5S)-5-((5-cyclopropyl-3-(2,6-dichlorophenyl)isoxazol-4-yl)methoxy)bicyclo[2.2.1]heptan-2-yl)amino)-4-isopropoxybenzo[d]thiazole-6-carboxylic acid]	> 7.60
CC(C)Oc1cc(C(=O)O)cc2sc(N[C@H]3C[C@@H]4C[C@H]3C[C@@H]4OCc3c(-c4ccccc4OC(F)(F)F)noc3C3CC3)nc12 [Example 5]	6.30 to 7.60
CC(C)Oc1cc(C(=O)O)cc2sc(N[C@@H]3C[C@@H]4C[C@H]3C[C@@H]4OCc3c(-c4ccccc4OC(F)(F)F)noc3C3CC3)nc12 [Example 6]	6.30 to 7.60
CC(C)Oc1cc(C(=O)O)cc2sc(N[C@@H]3C[C@H]4C[C@@H]3[C@@H](OCc3c(-c5c(Cl)cccc5Cl)noc3C3CC3)C4)nc12 [Example 7]	> 7.60
NS(=O)(=O)c1ccc2nc(NC3C4CCC3CC(OCc3c(-c5ccccc5OC(F)(F)F)noc3C3CC3)C4)sc2c1 [Example 8, 2-(((1R,3r,5S,8s)-3-((5-cyclopropyl-3-(2-(trifluoromethoxy)phenyl)isoxazol-4-yl)methoxy)bicyclo[3.2.1]octan-8-yl)amino)benzo[d]thiazole-6-sulfonamide]	6.30 to 7.60
O=C(O)c1ccc2c(S(=O)(=O)NC3C4CCC3CC(OCc3c(-c5ccccc5OC(F)(F)F)noc3C3CC3)C4)cccc2c1 [Example 9, 5-(N-((1R,3r,5S,8s)-3-((5-cyclopropyl-3-(2-(trifluoromethoxy)phenyl)isoxazol-4-yl)methoxy)bicyclo[3.2.1]octan-8-yl)sulfamoyl)-2-naphthoic acid]	> 7.60

The next lines start with the values.

pEC50	SMILES
6.30 to 7.60	NS(=O)(=O)c1ccc2nc(NC3C4CCC3CC(OCc3c(-c5ccccc5OC(F)(F)F)noc3C3CC3)C4)cnc2c1 (centres unmarked) [Example 8-2]
6.30 to 7.60	NS(=O)(=O)c1ccc(NC2C3CCC2CC(OCc2c(-c4ccccc4OC(F)(F)F)noc2C2CC2)C3)nc1 (centres unmarked) [Example 8-3]
6.30 to 7.60	N#Cc1ccc(NC2C3CCC2CC(OCc2c(-c4ccccc4OC(F)(F)F)noc2C2CC2)C3)nc1 [Example 8-4, 6-(((1R,3r,5S,8s)-3-((5-cyclopropyl-3-(2-(trifluoromethoxy)phenyl)isoxazol-4-yl)methoxy)bicyclo[3.2.1]octan-8-yl)amino)nicotinonitrile]
6.30 to 7.60	FC(F)(F)Oc1ccccc1-c1noc(C2CC2)c1COC1CC2CCC(C1)C2Nc1ccc(-c2nnn[nH]2)cn1 [Example 8-5, N-((1R,3r,5S,8s)-3-((5-cyclopropyl-3-(2-(trifluoromethoxy)phenyl)isoxazol-4-yl)methoxy)bicyclo[3.2.1]octan-8-yl)-5-(1H-tetrazol-5-yl)pyridin-2-amine]
6.30 to 7.60	FC(F)(F)Oc1ccccc1-c1noc(C2CC2)c1COC1CC2CCC(C1)C2Nc1nc2ccc(C(F)(F)F)cc2s1 (centres unmarked) [Example 8-6]
< 6.30	FC(F)(F)Oc1ccccc1-c1noc(C2CC2)c1COC1CC2CCC(C1)C2Nc1ncc(-c2ccccc2)cn1 [Example 8-7, N-((1R,3r,5S,8s)-3-((5-cyclopropyl-3-(2-(trifluoromethoxy)phenyl)isoxazol-4-yl)methoxy)bicyclo[3.2.1]octan-8-yl)-5-phenylpyrimidin-2-amine]
< 6.30	FC(F)(F)Oc1ccccc1-c1noc(C2CC2)c1COC1CC2CCC(C1)C2Nc1nccc(-c2ccccc2)n1 (centres unmarked) [Example 8-8]
> 7.60	COC(=O)c1ccc(S(=O)(=O)NC2C3CCC2CC(OCc2c(-c4ccccc4OC(F)(F)F)noc2C2CC2)C3)c2ccccc12 (centres unmarked) [Example 9-2]
6.30 to 7.60	O=C(O)c1ccc(S(=O)(=O)NC2C3CCC2CC(OCc2c(-c4ccccc4OC(F)(F)F)noc2C2CC2)C3)c2ccccc12 (centres unmarked) [Example 9-3]
6.30 to 7.60	COC(=O)c1cccc2c(S(=O)(=O)NC3C4CCC3CC(OCc3c(-c5ccccc5OC(F)(F)F)noc3C3CC3)C4)cccc12 (centres unmarked) [Example 9-4]
> 7.60	O=C(O)c1cccc2c(S(=O)(=O)NC3C4CCC3CC(OCc3c(-c5ccccc5OC(F)(F)F)noc3C3CC3)C4)cccc12 (centres unmarked) [Example 9-5]
> 7.60	COC(=O)c1ccc2cc(S(=O)(=O)NC3C4CCC3CC(OCc3c(-c5ccccc5OC(F)(F)F)noc3C3CC3)C4)ccc2c1 (centres unmarked) [Example 9-6]
6.30 to 7.60	O=C(O)c1ccc2cc(S(=O)(=O)NC3C4CCC3CC(OCc3c(-c5ccccc5OC(F)(F)F)noc3C3CC3)C4)ccc2c1 (centres unmarked) [Example 9-7]
< 6.30	O=C(O)c1cccc(S(=O)(=O)NC2C3CCC2CC(OCc2c(-c4ccccc4OC(F)(F)F)noc2C2CC2)C3)c1 (centres unmarked) [Example 9-8]
< 6.30	O=C(O)c1ccccc1S(=O)(=O)NC1C2CCC1CC(OCc1c(-c3ccccc3OC(F)(F)F)noc1C1CC1)C2 (centres unmarked) [Example 9-9]
6.30 to 7.60	O=S(=O)(NC1C2CCC1CC(OCc1c(-c3ccccc3OC(F)(F)F)noc1C1CC1)C2)c1ccccc1 (centres unmarked) [Example 9-10]
